In patent US20060094719A1, “Tetralin histamine-3 receptor antagonists” (Pfizer Inc, priority 2004, published 2006):

How the values were obtained:
[1] = target: T1, rat histamine H3 receptors (Rattus norvegicus, UniProt Q9QYN8); experiment: Rat H3 binding, 3H-N-methylhistamine displacement in frontal brain membranes; details: radioligand 1 nM 3H-N-methylhistamine, 1-hour incubation
T1 construct: Frozen rat frontal brain or frozen human post-mortem frontal brain is homogenized; from tissue; host or cells: rat frontal brain membranes
Experimental: The in vitro affinity of the compounds in the present invention at the rat or human histamine H3 receptors can be determined according to the following procedure. Frozen rat frontal brain or frozen human post-mortem frontal brain is homogenized in 20 volumes of cold 50 mM Tris.HCl containing 2 mM MgCl2 (pH to 7.4 at 4° C.). The homogenate is then centrifuged at 45,000 G for 10 minutes. The supernatant is decanted and the membrane pellet re-suspended by Polytron in cold 50 mM Tris.HCl containing 2 mM MgCl2 (pH to 7.4 at 4 degrees C.) and centrifuged again. The final pellet is re-suspended in 50 mM Tris HCl containing 2 mM MgCl2 (pH to 7.4 at 25 degrees C.) at a concentration of 12 mg/mL. Dilutions of compounds are made in 10% DMSO/50 mM Tris buffer (pH 7.4) (at 10×final concentration, so that the final DMSO concentration is 1%). Incubations are initiated by the addition of membranes (200 microliters) to 96-well V-bottom polypropylene plates containing 25 microliters of drug dilutions and 25 microliters of radioligand (1 nM final concentration ^3H-N-methylhistamine). After a 1-hour incubation, assay samples are rapidly filtered through Whatman GF/B filters and rinsed with ice-cold 50 mM Tris buffer (pH 7.4) using a Skatron cell harvester. Radioactivity is quantified using a BetaPlate scintillation counter.

T1 sequence (Q9QYN8 whole entry): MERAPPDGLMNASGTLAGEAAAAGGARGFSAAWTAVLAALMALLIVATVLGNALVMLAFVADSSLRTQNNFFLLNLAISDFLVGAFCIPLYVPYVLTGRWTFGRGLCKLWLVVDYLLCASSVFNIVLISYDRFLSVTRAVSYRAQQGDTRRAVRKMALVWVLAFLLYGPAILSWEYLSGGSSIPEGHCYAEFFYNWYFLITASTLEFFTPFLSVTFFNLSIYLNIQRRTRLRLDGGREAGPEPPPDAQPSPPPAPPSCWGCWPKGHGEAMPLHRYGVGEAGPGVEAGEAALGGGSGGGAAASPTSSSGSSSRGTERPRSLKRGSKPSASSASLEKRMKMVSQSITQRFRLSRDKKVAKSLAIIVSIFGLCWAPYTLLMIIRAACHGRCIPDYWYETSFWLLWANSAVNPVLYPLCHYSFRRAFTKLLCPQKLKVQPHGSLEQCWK

SMILES | melting point | Ki [1] [nM]
Cl.c1cc2c(cc1OCCCNC1CC3CCC1C3)CCC(CN1CCCC1)C2 (stereo not drawn) | 265.4 to 266.3 °C | 
Cl.c1cc2c(cc1OCCCN1CCC3(CCCCC3)CC1)CCC(CN1CCCC1)C2 (stereo not drawn) | 287.6 to 290.2 °C | 
Cl.NC(=O)C1CCN(CCCOc2ccc3c(c2)CCC(CN2CCCC2)C3)CC1 (racemic) | 211 to 213 °C | 
c1cc2c(cc1OCCCN1CCCCC1)CCC(CN1CCCC1)C2 (racemic) [3 (±), (±)-1-[3-(6-Pyrrolidin-1-ylmethyl-5,6,7,8-tetrahydro-naphthalen-2-yloxy)-propyl]-piperidine] | 180 to 181.4 °C | 8.4
Cl.c1cc2c(cc1OCCCN1CCC(N3CCCCC3)CC1)CCC(CN1CCCC1)C2 (racemic) [7 (±), (±)-1′-[3-(6-Pyrrolidin-1-ylmethyl-5,6,7,8-tetrahydro-naphthalen-2-yloxy)-propyl]-[1,4′]bi-piperidinyl hydrochloride] | 284.8 °C (dec.) | 3
NC(=O)C1CCCN(CCCOc2ccc3c(c2)CCC(CN2CCCC2)C3)C1 (racemic) [Example 9, (±)-1-[3-(6-Pyrrolidin-1-ylmethyl-5,6,7,8-tetrahydro-naphthalen-2-yloxy)-propyl]-piperidine-3-carboxylic acid amide] | 102 to 103.2 °C | 
CC1CCCN(CCCOc2ccc3c(c2)CCC(CN2CCCC2)C3)C1 (single isomer, unassigned; (+)) [40 (+), (+)-3-Methyl-1-[3-(6-pyrrolidin-1-ylmethyl-5,6,7,8-tetrahydro-naphthalen-2-yloxy)-propyl]-piperidine] |  | 8.4
Fc1ccc(C2CCCN2CCCOc2ccc3c(c2)CCC(CN2CCCC2)C3)cc1 (single isomer, unassigned; (+)) [71 (+), (+)-2-(4-Fluorophenyl)-1-[3-(6-pyrrolidin-1-ylmethyl-5,6,7-8-tetrahydro-naphthalen-2-yloxy)-propyl]-pyrrolidine] |  | 9.6
Cl.c1cc2c(cc1OCCCNC1CCC3(CCCCC3)CC1)CCC(CN1CCCC1)C2 (single isomer, unassigned; (-)) [16 (−), (−)-[3-(6-Pyrrolidin-1-ylmethyl-5,6,7,8-tetrahydro-naphthalen-2-yloxy)-propyl]-spiro[5.5]undec-3-ylamine hydrochloride] | 291.5 to 292.9 °C | 7.2
Clc1ccc(CNCCCOc2ccc3c(c2)CCC(CN2CCCC2)C3)cc1 (single isomer, unassigned; (-)) [24 (−), (−)-(4-Chlorobenzyl)-[3-(6-pyrrolidin-1-ylmethyl-5,6,7,8-tetrahydro-naphthalen-2-yloxy)-propyl]-amine] |  | 0.84
Clc1ccc(CNCCCOc2ccc3c(c2)CCC(CN2CCCC2)C3)cc1Cl (single isomer, unassigned; (-)) [27 (−), (−)-(3,4-Dichlorobenzyl)-[3-(6-pyrrolidin-1-ylmethyl-5,6,7,8-tetrahydro-naphthalen-2-yloxy)-propyl]-amine] |  | 1.58
c1ccc(CNCCCOc2ccc3c(c2)CCC(CN2CCCC2)C3)cc1 (single isomer, unassigned; (-)) [28 (−), (−)-Benzyl-[3-(6-pyrrolidin-1-ylmethyl-5,6,7,8-tetrahydro-naphthalen-2-yloxy)-propyl]-amine] |  | 4.7
Fc1ccc(CNCCCOc2ccc3c(c2)CCC(CN2CCCC2)C3)cc1 (single isomer, unassigned; (-)) [32 (−), (−)-(4-Fluorobenzyl)-[3-(6-pyrrolidin-1-ylmethyl-5,6,7,8-tetrahydro-naphthalen-2-yloxy)-propyl]-amine] |  | 1.25
CC1CCCN(CCCOc2ccc3c(c2)CCC(CN2CCCC2)C3)C1 (single isomer, unassigned; (-)) [40 (−), (−)-3-Methyl-1-[3-(6-pyrrolidin-1-ylmethyl-5,6,7,8-tetrahydro-naphthalen-2-yloxy)-propyl]-piperidine] |  | 3.54
CC1CCCCN1CCCOc1ccc2c(c1)CCC(CN1CCCC1)C2 (single isomer, unassigned; (-)) [41 (−), (−)-2-Methyl-1-[3-(6-pyrrolidin-1-ylmethyl-5,6,7,8-tetrahydro-naphthalen-2-yloxy)-propyl]-piperidine] |  | 5.89
CC1CCN(CCCOc2ccc3c(c2)CCC(CN2CCCC2)C3)CC1 (single isomer, unassigned; (-)) [42 (−), (−)-4-Methyl-1-[3-(6-pyrrolidin-1-ylmethyl-5,6,7,8-tetrahydro-naphthalen-2-yloxy)-propyl]-piperidine] |  | 4.32
CC(CN1CCOCC1)NCCCOc1ccc2c(c1)CCC(CN1CCCC1)C2 (single isomer, unassigned; (-)) [51 (−), (−)-(1-Methyl-2-morpholin-4-ylethyl)-[3-(6-pyrrolidin-1-ylmethyl-5,6,7,8-tetrahydro-naphthalen-2-yloxy)-propyl]-amine] |  | 6.2
c1cc2c(cc1OCCCNC1CCCCC1)CCC(CN1CCCC1)C2 (single isomer, unassigned; (-)) [64 (−), (−)-[3-(6-pyrrolidin-1-ylmethyl-5,6,7,8-tetrahydro-naphthalen-2-yloxy)-propyl]-cyclohexyl-amine] |  | 4.36
c1cc2c(cc1OCCCN1CC3CCCC1C3)CCC(CN1CCCC1)C2 (single isomer, unassigned; (-)) [65 (−), (−)-6-[3-(6-Pyrrolidin-1-ylmethyl-5,6,7,8-tetrahydro-naphthalen-2-yloxy)-propyl]-6-azabicyclo-[3.2.1]octane] |  | 2.11
Fc1ccc(CNCCCOc2ccc3c(c2)CCC(CN2CCCC2)C3)cc1F (single isomer, unassigned; (-)) [77 (−), (−)-(3,4-Difluorobenzyl)-[3-(6-pyrrolidin-1-ylmethyl-5,6,7,8-tetrahydro-naphthalen-2-yloxy)-propyl]-amine] |  | 1.95
Clc1ccc(CNCCCOc2ccc3c(c2)CCC(CN2CCCC2)C3)c(Cl)c1 (single isomer, unassigned; (-)) [79 (−), (−)-(2,4-Dichlorobenzyl)-[3-(6-pyrrolidin-1-ylmethyl-5,6,7,8-tetrahydro-naphthalen-2-yloxy)-propyl]-amine] |  | 1.9
CC1CC(C)CN(CCCOc2ccc3c(c2)CCC(CN2CCCC2)C3)C1 (single isomer, unassigned; (-)) [81 (−), (−)-3,5-Dimethyl-1-[3-(6-pyrrolidin-1-ylmethyl-5,6,7,8-tetrahydro-naphthalen-2-yloxy)-propyl]-piperidine] |  | 9.14
Cl.Cl.c1cc2c(cc1OCCN1CCCCC1)CCC(CN1CCCC1)C2 (single isomer, unassigned; (-)) [92 (−), (−)-1-[2-(6-Pyrrolidin-1-ylmethyl-5,6,7,8-tetrahydro-naphthalen-2-yloxy)-ethyl]-piperidine dihydrochloride] | 265.5 to 266.8 °C | 11.3

Next, values leading:

melting point | Ki [1] [nM] | SMILES
131.6 to 132.8 °C |  | CN(C)CCOc1ccc2c(c1)CCC(CN1CCCC1)C2.Cl (racemic)
187.7 to 188.7 °C |  | CN(C)CCCOc1ccc2c(c1)CCC(CN1CCCC1)C2.Cl (racemic) [1]
259.9 to 261.4 °C |  | Cl.c1cc2c(cc1OCCCN1CCOCC1)CCC(CN1CCCC1)C2 (racemic) [4]
149.4 to 150.5 °C | 9 | Cl.c1cc2c(cc1OCCCN1CCCC1)CCC(CN1CCCC1)C2 (racemic) [6 (±), (±)-1-[3-(6-Pyrrolidin-1-ylmethyl-5,6,7,8-tetrahydro-naphthalen-2-yloxy)-propyl]-pyrrolidine hydrochloride]
286.6 to 286.8 °C | 1.1 | Cl.c1cc2c(cc1OCCCN1CCCCC1)CCC(CN1CCCC1)C2 (single isomer, unassigned; (-)) [10 (−), (−)-1-[3-(6-Pyrrolidin-1-ylmethyl-5,6,7,8-tetrahydro-naphthalen-2-yloxy)-propyl]-piperidine hydrochloride]
202 to 204 °C | 5 | CC1(C)CCCN(CCCOc2ccc3c(c2)CCC(CN2CCCC2)C3)C1.Cl (single isomer, unassigned; (-)) [15 (−), (−)-3,3-Dimethyl-1-[3-(6-pyrrolidin-1-ylmethyl-5,6,7,8-tetrahydro-naphthalen-2-yloxy)-propyl]-piperidine hydrochloride]
 | 4.5 | CN(CCCOc1ccc2c(c1)CCC(CN1CCCC1)C2)Cc1ccco1 (single isomer, unassigned; (-)) [55 (−), (−)-Furan-2-ylmethyl-[3-(6-pyrrolidin-1-ylmethyl-5,6,7,8-tetrahydro-naphthalen-2-yloxy)-propyl]-methylamine]
255.4 to 256.4 °C |  | Cl.c1cc2c(cc1OCCCN1CCOCC1)CCC(CN1CCCC1)C2 (stereo not drawn) [5]
281.8 to 282.7 °C |  | Cl.c1cc2c(cc1OCCCN1CCOCC1)CCC(CN1CCCC1)C2 (stereo not drawn) [11]
256.6 to 258.4 °C |  | Cl.c1cc2c(cc1OCCCN1CCCCC1)CCC(CN1CCCC1)C2 (stereo not drawn) [12]
230.6 to 232.8 °C |  | CN(C)CCCOc1ccc2c(c1)CCC(CN1CCCC1)C2.Cl (stereo not drawn) [13]
249.6 to 250.4 °C |  | Cl.c1cc2c(cc1OCCCN1CCOCC1)CCC(CN1CCCC1)C2 (stereo not drawn) [14]
